Results reported in ChEMBL document CHEMBL5365483, “Structure-Based Drug Design of Novel Triaminotriazine Derivatives as Orally Bioavailable IDH2R140Q Inhibitors with High Selectivity and Reduced hERG Inhibitory Activity for the Treatment of Acute Myeloid Leukemia” (J Med Chem, 2023).

Assays:
[1] = in vitro; settings: human, liver microsomes
[2] = in vitro; settings: human, liver microsomes; remark: listed apart in the source
[3] = in vitro; settings: mouse, liver microsomes
[4] = in vitro; settings: mouse, liver microsomes; remark: listed apart in the source
[5] = in vivo; settings: BALB/c, mouse, iv, 5 mg/kg
[6] = in vivo; settings: BALB/c, mouse, iv, 5 mg/kg; remark: listed apart in the source
[7] = in vivo; settings: BALB/c, mouse, iv, 5 mg/kg; remark: listed apart in the source
[8] = in vivo; settings: BALB/c, mouse, iv, 5 mg/kg; remark: listed apart in the source
[9] = in vivo; settings: BALB/c, mouse, iv, 5 mg/kg; remark: listed apart in the source
[10] = in vivo; settings: BALB/c, mouse, po, 25 mg/kg
[11] = in vivo; settings: BALB/c, mouse, po, 25 mg/kg; remark: listed apart in the source
[12] = in vivo; settings: BALB/c, mouse, po, 25 mg/kg; remark: listed apart in the source
[13] = in vivo; settings: BALB/c, mouse, po, 25 mg/kg; remark: listed apart in the source
[14] = in vivo; settings: BALB/c, mouse, po, 25 mg/kg; remark: listed apart in the source

Row | SMILES | half-life at 1 h, 1 µM [1] | CLint scaled at 1 h, 1 µM [2] | half-life at 1 h, 1 µM [3] | CLint scaled at 1 h, 1 µM [4] | half-life at 24 h [5] | Cmax at 24 h [6] | AUC(0-inf) at 24 h [7] | MRT at 24 h [8] | clearance at 24 h [9] | half-life at 72 h [10] | Cmax at 72 h [11] | AUC(0-inf) at 72 h [12] | MRT at 72 h [13] | bioavailability at 72 h [14]
1 | O=C(O)Cc1ccccc1Nc1c(Cl)cccc1Cl [DICLOFENAC] | 0.0883 h | 18.1 L/h/kg | 0.402 h | 13.6 L/h/kg |  |  |  |  |  |  |  |  |  | 
2 | CC(C)(O)CNc1nc(Nc2ccnc(C(F)(F)F)c2)nc(-c2cccc(C(F)(F)F)n2)n1 [ENASIDENIB] |  |  |  |  | 2.71 h | 2.85 µg/mL | 14 µg·h/mL | 4.9 h | 0.359 L/h/kg | 6.98 h | 6.39 µg/mL | 87.6 µg·h/mL | 7.45 h | 125%
3 | CCOc1ccc(NC(C)=O)cc1 [PHENACETIN] | 1.13 h | 1.42 L/h/kg | 0.0567 h | 95.3 L/h/kg |  |  |  |  |  |  |  |  |  | 
